Results: US20110046067A1, “COMPOSITIONS COMPRISING HUMAN EGFR-siRNA AND METHODS OF USE” (Intradigm Corporation, priority 2007, published 2011)
Entries after “also recorded” stand apart in the source; their conditions may differ.

Test system: hEGFR
Assay: hEGFR dose titration in HT-29 cells (electroporation, hEGFR ELISA)
Type: cell-based, human
Conditions: 0.01-10 ug siRNA per 2×10^6 cells/200 μl, 48 hours post transfection
Description: The selected hEGFR-siRNA, hEGFR-25-1 and hEGFR-25-2, were tested for their capability of inhibiting hEGFR expression in a dose-dependent manner. The HT-29 cells were transfected with the EGFR-siRNAs in a range of 0.01-10 ug siRNA per 2×10^6 cells/200 μl using an electroporation mediated transfection method. The concentration of EGFR protein in the transfected HT-29 cells was measured at 48 hours post transfection using a hEGFR ELISA kit (R&D Systems, Inc.). The concentration of hEGFR protein was normalized against total cellular protein and the percentage of hEGFR inhibition was normalized against cells treated with a mock process without siRNA.
Two siRNA candidates, hEGFR-25-1 and hEGFR-25-2, were further tested for activity in a dose titration experiment.

Substance	dose-dependent inhibition of hEGFR production
5′-r(CACAGUGGAGCGAAUUCCUUUGGAA)-3′ (chain 2 UUCCAAAGGAAUUCGCUCCACUGUG; siRNA; RNA, backbone not given here) [hEGFR-25-1]	inhibited hEGFR expression in a dose-dependent manner; also recorded: dose-dependent inhibition
5′-r(CGCAAAGUGUGUAACGGAAUAGGUA)-3′ (chain 2 UACCUAUUCCGUUACACACUUUGCG; siRNA; RNA, backbone not given here) [hEGFR-25-2]	inhibited hEGFR expression in a dose-dependent manner; also recorded: dose-dependent inhibition
